Assay results: ChEMBL document CHEMBL1201862, “PubChem BioAssay data set” (2004)
Active and inactive are the calls of the source.

Columns and labels:
[1] = target: T1, Type-1 angiotensin II receptor (Homo sapiens, UniProt P30556); experiment: AT1 receptor agonists, dose response, selectivity assay for APJ receptor agonist project, cell-based, uHTS hits (AID 488865); assay type: functional;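 note: beta-arrestin recruitment to AT1 measured by enzyme fragment complementation luminescence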
T1 sequence (P30556 whole entry): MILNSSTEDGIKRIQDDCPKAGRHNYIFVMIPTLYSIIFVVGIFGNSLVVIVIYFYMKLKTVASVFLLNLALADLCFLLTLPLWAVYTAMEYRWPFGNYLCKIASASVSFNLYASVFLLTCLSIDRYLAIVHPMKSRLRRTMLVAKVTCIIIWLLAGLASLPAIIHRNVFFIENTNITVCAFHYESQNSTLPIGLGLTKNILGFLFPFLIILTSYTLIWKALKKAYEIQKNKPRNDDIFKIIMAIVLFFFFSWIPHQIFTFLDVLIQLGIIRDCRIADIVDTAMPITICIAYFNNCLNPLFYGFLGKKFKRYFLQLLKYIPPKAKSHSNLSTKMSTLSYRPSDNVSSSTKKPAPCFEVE

[2] = target: T2, Tyrosine-protein phosphatase non-receptor type 7 (Homo sapiens, UniProt P35236); experiment: SAR analysis of chemical inhibitors of HePTP using a Fluorescent assay - Set 2. [Related pubchem assays (depositor defined):AID1059, AID1077, AID1661, AID2085, AID521]; assay type: functional
T2 sequence (P35236 whole entry): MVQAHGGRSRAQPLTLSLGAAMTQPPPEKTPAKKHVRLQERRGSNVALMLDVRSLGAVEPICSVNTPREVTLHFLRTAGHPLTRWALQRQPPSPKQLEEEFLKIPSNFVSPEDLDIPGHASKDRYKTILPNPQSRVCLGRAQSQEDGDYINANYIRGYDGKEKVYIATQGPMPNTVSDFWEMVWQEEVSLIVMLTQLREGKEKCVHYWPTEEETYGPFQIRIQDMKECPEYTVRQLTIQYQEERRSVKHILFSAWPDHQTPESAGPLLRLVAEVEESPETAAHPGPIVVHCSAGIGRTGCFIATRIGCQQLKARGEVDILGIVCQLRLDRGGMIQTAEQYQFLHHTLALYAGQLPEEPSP

[3] = target: Dual specificity protein phosphatase 3 (Homo sapiens, UniProt P51452); experiment: SAR VHR1 Fluorescent Assay for In Vitro dose response studies Set 2. [Related pubchem assays (depositor defined):AID1654, AID1661, AID1878]; assay type: functional
[4] = tested on: Streptococcus sp. 'group A'; experiment: growth inhibition of control SK(-) GAS strain, dose response, counter-screen for streptokinase expression inhibitor project, luminescence, kanamycin, BacTiterGlo, confirmation (AID 1900); assay type: functional, organism-based
Streptokinase A = target: T3, Streptokinase A (Streptococcus pyogenes serotype M1, UniProt P10520); experiment: S. pyogenes streptokinase expression inhibitors, potency, dose response, plasminogen activation absorbance, OD405 (AID 1914); assay type: functional, Streptococcus pyogenes M1 GAS;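 note: secreted streptokinase activity via plasminogen activation per viability signal from cell pellet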
T3 sequence (P10520 whole entry): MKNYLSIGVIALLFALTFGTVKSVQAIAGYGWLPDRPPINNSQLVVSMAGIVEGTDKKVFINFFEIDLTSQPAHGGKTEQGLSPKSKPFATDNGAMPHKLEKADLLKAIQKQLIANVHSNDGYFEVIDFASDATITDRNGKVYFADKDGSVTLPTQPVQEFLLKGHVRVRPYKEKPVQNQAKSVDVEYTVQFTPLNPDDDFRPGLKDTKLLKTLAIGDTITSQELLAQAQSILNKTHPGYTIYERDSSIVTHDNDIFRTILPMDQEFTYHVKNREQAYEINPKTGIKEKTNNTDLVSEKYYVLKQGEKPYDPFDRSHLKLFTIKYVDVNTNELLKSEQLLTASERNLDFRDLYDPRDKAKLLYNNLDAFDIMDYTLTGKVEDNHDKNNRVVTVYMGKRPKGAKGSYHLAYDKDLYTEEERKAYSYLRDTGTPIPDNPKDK

Streptococcus = experiment: Group A Streptococcus viability loss, dose response, counter-screen for streptokinase expression inhibitor project, luminescence, BacTiterGlo (AID 1915); assay type: functional, organism-based;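 note: potency for reduction of bacterial viability or growth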
[5] = target: T4, Short transient receptor potential channel 4 (Mus musculus, UniProt Q9QUQ5); experiment: TRPC4 positive allosteric modulators, dose response, cell-based, HEK293 TRPC4/mu-opioid, Fluo-4 calcium, EC20 DAMGO (AID 434941); assay type: functional
T4 sequence (Q9QUQ5 whole entry): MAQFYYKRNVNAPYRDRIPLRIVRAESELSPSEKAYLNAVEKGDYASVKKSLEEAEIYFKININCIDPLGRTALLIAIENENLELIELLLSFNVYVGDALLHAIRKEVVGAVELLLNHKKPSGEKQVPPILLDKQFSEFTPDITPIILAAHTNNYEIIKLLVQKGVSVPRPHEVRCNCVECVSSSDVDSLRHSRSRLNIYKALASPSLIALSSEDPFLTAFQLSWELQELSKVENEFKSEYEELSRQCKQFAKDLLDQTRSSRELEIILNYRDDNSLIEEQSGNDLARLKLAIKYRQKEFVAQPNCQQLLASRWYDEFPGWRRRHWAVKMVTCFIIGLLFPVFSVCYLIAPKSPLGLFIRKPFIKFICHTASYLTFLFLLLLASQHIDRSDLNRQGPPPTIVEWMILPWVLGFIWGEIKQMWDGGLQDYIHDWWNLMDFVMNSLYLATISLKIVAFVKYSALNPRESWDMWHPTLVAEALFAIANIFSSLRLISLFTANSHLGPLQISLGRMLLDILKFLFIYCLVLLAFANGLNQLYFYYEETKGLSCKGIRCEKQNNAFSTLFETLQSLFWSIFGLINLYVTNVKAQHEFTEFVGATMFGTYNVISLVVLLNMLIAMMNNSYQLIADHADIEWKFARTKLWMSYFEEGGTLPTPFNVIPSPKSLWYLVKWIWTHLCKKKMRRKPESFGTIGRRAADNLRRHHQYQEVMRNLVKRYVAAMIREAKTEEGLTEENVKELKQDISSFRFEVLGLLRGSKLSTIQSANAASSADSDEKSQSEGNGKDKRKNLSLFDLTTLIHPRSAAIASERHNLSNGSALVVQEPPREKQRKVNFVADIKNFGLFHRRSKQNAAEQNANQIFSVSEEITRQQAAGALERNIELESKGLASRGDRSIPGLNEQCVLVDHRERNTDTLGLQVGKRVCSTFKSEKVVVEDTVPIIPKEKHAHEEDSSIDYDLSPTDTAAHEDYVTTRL

[6] = target: T4, Short transient receptor potential channel 4; experiment: mouse TRPC4 channel activators, dose response, cell-based, HEK293 TRPC4/mu-opioid, Fluo-4 calcium (AID 434937); assay type: functional
Protein skinhead-1 = target: T5, Protein skinhead-1 (Caenorhabditis elegans, UniProt P34707); assay type: functional
T5 sequence (P34707 whole entry): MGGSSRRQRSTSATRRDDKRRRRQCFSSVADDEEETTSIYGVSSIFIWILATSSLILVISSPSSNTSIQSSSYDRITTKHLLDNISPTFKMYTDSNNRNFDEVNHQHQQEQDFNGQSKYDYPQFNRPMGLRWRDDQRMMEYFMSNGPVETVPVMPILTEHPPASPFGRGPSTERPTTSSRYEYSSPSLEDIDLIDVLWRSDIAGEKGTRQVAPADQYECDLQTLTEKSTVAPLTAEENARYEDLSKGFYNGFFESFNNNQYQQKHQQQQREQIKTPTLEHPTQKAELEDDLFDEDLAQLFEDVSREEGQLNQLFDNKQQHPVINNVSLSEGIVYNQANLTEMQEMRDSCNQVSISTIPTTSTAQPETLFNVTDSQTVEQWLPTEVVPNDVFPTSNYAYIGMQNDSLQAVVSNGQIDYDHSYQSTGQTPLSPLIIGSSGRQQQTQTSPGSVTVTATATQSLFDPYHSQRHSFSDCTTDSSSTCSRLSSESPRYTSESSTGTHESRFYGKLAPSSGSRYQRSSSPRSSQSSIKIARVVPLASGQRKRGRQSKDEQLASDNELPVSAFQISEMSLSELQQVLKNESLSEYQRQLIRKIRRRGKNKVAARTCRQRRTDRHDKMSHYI

Coagulation factor XII = target: T6, Coagulation factor XII (Homo sapiens, UniProt P00748); experiment: FXIIa inhibitor potency, concentration-response, biochemical (AID 716); assay type: functional
T6 sequence (P00748 whole entry): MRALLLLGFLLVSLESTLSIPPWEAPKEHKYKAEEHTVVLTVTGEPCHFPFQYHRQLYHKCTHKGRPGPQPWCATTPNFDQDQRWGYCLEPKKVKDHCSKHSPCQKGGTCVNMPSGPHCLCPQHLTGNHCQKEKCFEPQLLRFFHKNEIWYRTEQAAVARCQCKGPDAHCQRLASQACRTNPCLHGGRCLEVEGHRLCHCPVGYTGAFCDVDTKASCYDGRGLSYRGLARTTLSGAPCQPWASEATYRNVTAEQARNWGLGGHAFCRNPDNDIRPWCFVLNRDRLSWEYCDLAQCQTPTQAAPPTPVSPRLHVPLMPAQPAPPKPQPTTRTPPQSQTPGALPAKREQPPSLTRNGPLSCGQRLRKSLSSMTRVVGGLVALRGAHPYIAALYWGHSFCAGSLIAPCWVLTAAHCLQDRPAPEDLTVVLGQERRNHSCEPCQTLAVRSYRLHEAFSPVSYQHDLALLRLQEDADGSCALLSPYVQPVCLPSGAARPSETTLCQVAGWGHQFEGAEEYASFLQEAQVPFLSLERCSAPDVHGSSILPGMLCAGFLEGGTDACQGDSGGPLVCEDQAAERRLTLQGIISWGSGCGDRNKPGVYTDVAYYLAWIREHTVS

Mu-type opioid receptor = Mu-type opioid receptor (Homo sapiens, UniProt P35372); experiment: SAR Analysis of Antagonists of the MOR Receptor using an Image-Based Assay - Set 3. [Related pubchem assays (depositor defined):AID1777, AID1785, AID1786, AID1966, AID2133, AID2136, AID2284, AID2285, AID2420]; assay type: functional
[7] = target: Delta-type opioid receptor (Homo sapiens, UniProt P41143); experiment: SAR Analysis of Antagonists of the DOR Receptor using an Image-Based Assay - Set 3. [Related pubchem assays (depositor defined):AID1777, AID1785]; assay type: functional;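 note: U2OS cells expressing DOR1 and beta-arrestin GFP stimulated with 100 nM SNC80; imaging of GFP-tagged beta-arrestin moving into spots after receptor activation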
[8] = target: T7, Kappa-type opioid receptor (Homo sapiens, UniProt P41145); experiment: SAR analysis of small molecule antagonists of the kappa opioid receptor via a luminescent beta-arrestin assay - Set 3. [Related pubchem assays (depositor defined):AID1777, AID1778, AID1785, AID1786, AID1966, AID2133, AID2136, AID2285, AID2495]; assay type: functional
[9] = target: T7, Kappa-type opioid receptor; experiment: SAR analysis of Antagonists of the Kappa Opioid Receptor (KOR) using an Image-Based Assay - Set 3. [Related pubchem assays (depositor defined):AID1777, AID1785]; assay type: functional
T-cell = experiment: inhibitors of CD8+ T cell–vesicle binding, dose response, mouse 2C CD8+ T cells, flow cytometry (AID 485284); assay type: functional
BJ [10] = experiment: cytotoxicity toward BJ-TERT fibroblasts, dose response, cell-based, RAS-independent, luminescence (AID 1933); assay type: functional; conditions: Homo sapiens
BJ [11] = experiment: cells; assay type: functional, cell-based; conditions: Homo sapiens
[12] = microbe, parasite or virus in culture; assay type: functional; conditions: Mycobacterium tuberculosis
BJ [13] = experiment: cytotoxicity toward BJ-TERT-LT-ST fibroblasts, dose response, cell-based, RAS-independent, luminescence (AID 1935); assay type: functional; conditions: Homo sapiens;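 note: BJ fibroblasts immortalized with TERT plus LT and ST oncogenes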
[14] = cytotoxicity toward DRD oncogenic fibroblasts, dose response, cell-based, non-viral oncogenic, luminescence (AID 1934); assay type: functional; conditions: Homo sapiens
[15] = target: DNA dC->dU-editing enzyme APOBEC-3A (Homo sapiens, UniProt P31941); experiment: Dose Response confirmation of small molecule APOBEC3A DNA Deaminase Inhibitors via a fluorescence-based single-stranded DNA deaminase assay. [Related pubchem assays (depositor defined):AID493011, AID493024]; assay type: functional
[16] = cytotoxicity in HEK-293T cells, dose response, cytotoxicity control for TCR NF-kB inhibitor project, luminescence, T-cell screen hits (AID 489026); assay type: functional, cell-based;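 note: cells exposed to compound about 14 hours before the viability readout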
[17] = target: FAD-linked sulfhydryl oxidase ALR (Homo sapiens, UniProt P55789); experiment: inhibitors of human ALR sulfhydryl oxidase, dose response, biochemical, H2O2 detection, luminescence, cherry-pick (AID 493248)
[18] = target: DNA dC->dU-editing enzyme APOBEC-3G (Homo sapiens, UniProt Q9HC16); assay type: functional;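 note: Dose-response counterscreen measuring inhibition of APOBEC3G DNA deaminase activity, run while confirming APOBEC3A inhibitors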
Chain of DNA dC->dU-editing enzyme APOBEC-3G (Q9HC16 whole entry): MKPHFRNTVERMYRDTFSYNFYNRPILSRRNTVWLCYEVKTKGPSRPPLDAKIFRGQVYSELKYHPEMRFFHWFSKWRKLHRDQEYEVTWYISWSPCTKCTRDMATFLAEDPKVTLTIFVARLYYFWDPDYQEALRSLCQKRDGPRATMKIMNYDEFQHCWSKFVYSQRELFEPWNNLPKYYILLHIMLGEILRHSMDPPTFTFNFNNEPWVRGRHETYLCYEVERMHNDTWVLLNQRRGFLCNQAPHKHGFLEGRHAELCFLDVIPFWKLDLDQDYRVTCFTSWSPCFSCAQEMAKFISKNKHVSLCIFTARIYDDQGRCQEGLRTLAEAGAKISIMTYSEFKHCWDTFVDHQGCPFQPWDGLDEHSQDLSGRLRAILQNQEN

T7 sequence (P41145 whole entry): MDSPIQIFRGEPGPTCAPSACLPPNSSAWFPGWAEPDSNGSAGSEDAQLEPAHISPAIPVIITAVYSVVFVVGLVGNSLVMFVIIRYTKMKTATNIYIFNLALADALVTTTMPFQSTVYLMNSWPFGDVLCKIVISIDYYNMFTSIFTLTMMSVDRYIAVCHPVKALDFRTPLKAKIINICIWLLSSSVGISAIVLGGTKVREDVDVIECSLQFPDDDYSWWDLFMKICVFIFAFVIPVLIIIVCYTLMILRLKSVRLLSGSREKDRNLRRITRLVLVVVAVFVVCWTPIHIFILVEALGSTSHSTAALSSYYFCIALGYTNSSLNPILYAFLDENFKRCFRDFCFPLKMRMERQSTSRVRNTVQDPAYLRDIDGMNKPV
Chain of Dual specificity protein phosphatase 3 (P51452 whole entry): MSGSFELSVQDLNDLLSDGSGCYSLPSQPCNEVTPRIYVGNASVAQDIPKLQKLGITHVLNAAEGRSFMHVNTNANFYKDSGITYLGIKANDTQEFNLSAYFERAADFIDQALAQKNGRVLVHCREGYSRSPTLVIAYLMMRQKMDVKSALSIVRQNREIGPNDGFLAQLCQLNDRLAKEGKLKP
Chain of DNA dC->dU-editing enzyme APOBEC-3A (P31941 whole entry): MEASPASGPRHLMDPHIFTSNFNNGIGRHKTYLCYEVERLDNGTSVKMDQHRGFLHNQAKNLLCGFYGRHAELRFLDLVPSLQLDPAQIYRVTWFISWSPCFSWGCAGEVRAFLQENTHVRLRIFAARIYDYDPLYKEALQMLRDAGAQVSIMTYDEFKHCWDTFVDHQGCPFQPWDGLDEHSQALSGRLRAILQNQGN
Chain of Mu-type opioid receptor (P35372 whole entry): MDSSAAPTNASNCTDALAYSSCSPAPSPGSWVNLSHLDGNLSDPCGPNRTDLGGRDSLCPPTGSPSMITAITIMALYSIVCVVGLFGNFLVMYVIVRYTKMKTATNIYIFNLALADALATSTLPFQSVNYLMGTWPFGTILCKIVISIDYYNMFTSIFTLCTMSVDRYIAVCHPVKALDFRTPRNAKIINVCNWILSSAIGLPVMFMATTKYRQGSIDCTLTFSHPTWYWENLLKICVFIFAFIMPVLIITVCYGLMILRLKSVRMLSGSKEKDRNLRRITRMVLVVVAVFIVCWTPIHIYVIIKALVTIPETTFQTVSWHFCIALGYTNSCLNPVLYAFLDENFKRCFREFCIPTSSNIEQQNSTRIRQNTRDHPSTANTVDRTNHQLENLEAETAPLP
Chain of FAD-linked sulfhydryl oxidase ALR (P55789 whole entry): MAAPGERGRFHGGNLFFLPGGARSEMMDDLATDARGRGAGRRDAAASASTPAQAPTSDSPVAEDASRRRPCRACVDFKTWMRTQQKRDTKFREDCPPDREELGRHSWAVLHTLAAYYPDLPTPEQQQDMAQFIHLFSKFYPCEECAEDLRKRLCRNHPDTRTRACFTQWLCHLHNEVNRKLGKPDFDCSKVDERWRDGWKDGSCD
Chain of Delta-type opioid receptor (P41143 whole entry): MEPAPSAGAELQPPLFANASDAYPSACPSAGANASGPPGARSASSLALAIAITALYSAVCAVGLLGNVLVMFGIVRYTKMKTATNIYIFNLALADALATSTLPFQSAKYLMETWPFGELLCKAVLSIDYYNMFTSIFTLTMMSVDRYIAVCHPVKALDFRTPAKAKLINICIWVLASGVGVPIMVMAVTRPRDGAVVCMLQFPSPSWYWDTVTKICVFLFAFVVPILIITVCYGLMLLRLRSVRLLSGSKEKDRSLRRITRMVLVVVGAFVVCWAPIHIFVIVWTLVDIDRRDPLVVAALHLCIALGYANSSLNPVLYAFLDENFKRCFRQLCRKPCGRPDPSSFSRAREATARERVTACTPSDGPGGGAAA

SMILES: CC1(OC(=O)C2CCCC2)C(=O)C=C2C=C(c3ccsc3)N(C3CCCC3)C=C2C1=O (stereo not given)
- EC50 [1]: > 100 µM (inactive)

SMILES: C=CCn1c(N)c(C(=O)N2CCN(C)CC2)sc1=S
- IC50 [2]: 77.7 µM (active)
- IC50 [3]: 61.2 µM (active)

SMILES: COc1cc(/C=C2/SC(=S)N(Cc3ccccc3)C2=O)cc(Cl)c1O
- EC50 [4]: 5.2 µM (active)
- EC50 (Streptokinase A): > 150 µM (not active)
- EC50 (Streptococcus): 5.86 µM (active)
- EC50 [5]: 1.5 µM (active)
- EC50 [6]: 5.31 µM (active)
- IC50 (Protein skinhead-1): > 100 µM (inactive)

SMILES: CCC(c1nnnn1Cc1ccc2c(c1)OCO2)N1CCN(c2ccc(F)cc2)CC1 (stereo not given)
- IC50 (Coagulation factor XII): > 50 µM (inactive)
- IC50 (Protein skinhead-1): > 100 µM (inactive)

SMILES: Cc1ccc(S(=O)(=O)NCc2ccc(C(=O)NCCN(Cc3ccccc3)Cc3ccccc3)cc2)cc1
- IC50 (Mu-type opioid receptor): > 32 µM (inactive)
- IC50 [7]: > 32 µM (inactive)
- IC50 [8]: 16.2 µM (inactive)
- IC50 [9]: 7.47 µM (active)

SMILES: O=C(Cn1cc(C(F)(F)F)cc(Cl)c1=O)NCCc1ccc(Cl)cc1Cl
- EC50 (T-cell): 7.63 µM (active)

SMILES: CC(C)CC[n+]1ccccc1C=Cc1ccc(N(C)C)cc1
- EC50 (BJ [10]): 3.6 µM (active)
- EC50 (BJ [11]): 15.5 µM (active)
- CC50 [12]: > 40 µM (active)
- EC50 (BJ [13]): > 150 µM (inconclusive)
- EC50 [14]: 22.8 µM (inconclusive)
- IC50 [15]: 6.84 µM (active)
- IC50 [16]: > 80 µM (inactive)
- AC50 [17]: 1.36 µM (active)
- IC50 [18]: 19.3 µM (active)
